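Compound exposure: 48 hours, 5 concentrations, 96-well plates. The concentration for 50% growth inhibition is given as GI50.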 Calls of active or inactive are those of the source. Rule as the data show it: active = GI50 up to about 1.1 µM and inactive = higher.
How the values were obtained:
Test in all cases: inhibition of tumour cell growth, NCI panel, 48 h
[1] = test system: SF-295
[2] = test system: SNB-75
[3] = test system: M14
[4] = test system: 786-0
[5] = test system: Hs-578T
[6] = test system: MDA-MB-231
[7] = test system: MCF7
[8] = test system: NCI-H226
[9] = test system: CAKI-1
[10] = test system: OVCAR-4
[11] = test system: MDA-MB-435
[12] = test system: BT-549
[13] = test system: A549
[14] = test system: LOX IMVI
[15] = test system: DU-145
[16] = test system: HOP-62
[17] = test system: EKVX
[18] = test system: ACHN
[19] = test system: UACC-257
[20] = test system: SK-MEL-2

Measured: GI50

CC(C)CC(NC=O)C(=O)NC(Cc1ccccc1)NC(=O)CNC(=O)C(C)NC(=O)C(N)Cc1ccc(O)cc1 (configuration not stated)
inactive: [1] > 100 µM | [2] > 100 µM | [3] > 100 µM | [4] > 100 µM | [5] > 100 µM | [6] > 100 µM | [7] > 100 µM | [8] > 100 µM | [9] > 100 µM | [10] 91.8 µM | [11] > 100 µM | [12] > 100 µM | [13] > 100 µM | [14] > 100 µM | [15] > 100 µM | [16] > 100 µM | [17] > 100 µM | [18] > 100 µM

CNC(=S)Nc1sc2c(c1C#N)CCCC2
inactive: [19] > 75 µM | [1] > 75 µM | [2] > 75 µM | [20] > 75 µM | [4] > 75 µM | [5] > 75 µM | [6] > 75 µM | [7] > 75 µM | [8] > 75 µM | [9] > 75 µM | [10] > 75 µM | [11] > 75 µM | [12] > 75 µM | [14] > 75 µM | [15] > 75 µM | [16] > 75 µM | [17] > 75 µM | [18] > 75 µM

O=C(CN1c2ccccc2Sc2ccccc21)N1CCNCC1
inactive: [19] > 100 µM | [1] > 100 µM | [2] 30.9 µM | [20] > 100 µM | [3] > 100 µM | [4] > 100 µM | [5] > 100 µM | [6] > 100 µM | [7] > 100 µM | [8] 78.7 µM | [10] > 100 µM | [11] > 100 µM | [12] > 100 µM | [13] > 100 µM | [14] > 100 µM | [15] > 100 µM | [16] > 100 µM | [17] > 100 µM | [18] > 100 µM

N=C(N)NCC[C@H](NC(=O)OCCCCCn1ccc(=O)[nH]c1=O)C(=O)O
inactive: [19] > 100 µM | [1] > 100 µM | [2] 41.4 µM | [20] > 100 µM | [4] > 100 µM | [5] > 100 µM | [6] > 100 µM | [7] > 100 µM | [8] > 100 µM | [9] > 100 µM | [10] > 100 µM | [11] > 100 µM | [12] > 100 µM | [13] > 100 µM | [14] > 100 µM | [15] > 100 µM | [16] > 100 µM | [17] > 100 µM | [18] > 100 µM

C#CCCCCC#Cc1ccccc1C(=O)C=[N+]=[N-]
inactive: [19] > 100 µM | [1] > 100 µM | [2] 95.1 µM | [20] > 100 µM | [3] > 100 µM | [4] > 100 µM | [5] > 100 µM | [6] > 100 µM | [7] > 100 µM | [8] > 100 µM | [9] > 100 µM | [10] > 100 µM | [11] > 100 µM | [12] > 100 µM | [13] > 100 µM | [15] > 100 µM | [16] > 100 µM | [17] > 100 µM | [18] > 100 µM

COc1cc(C2c3c(ccc4ccccc34)C(=O)C3CCC(=O)N32)cc(OC)c1OC (configuration not stated)
inactive: [19] > 50 µM | [1] > 50 µM | [2] > 50 µM | [20] > 50 µM | [3] > 50 µM | [4] > 50 µM | [5] > 50 µM | [6] > 50 µM | [7] > 50 µM | [8] > 50 µM | [9] > 50 µM | [10] > 50 µM | [11] > 50 µM | [12] > 50 µM | [13] > 50 µM | [15] > 50 µM | [16] > 50 µM | [17] > 50 µM | [18] > 50 µM

C[C@H](C(=O)N1C(=O)O[C@@H](c2ccccc2)[C@H]1C)[C@H](c1ccccc1)N(Cc1ccccc1)OC(=O)c1ccccc1
inactive: [19] 20.9 µM | [1] 21.6 µM | [2] 29.9 µM | [20] 22.1 µM | [3] 24.3 µM | [4] 57.4 µM | [5] 84.5 µM | [6] 94 µM | [7] 30.1 µM | [8] 38.4 µM | [9] 77.1 µM | [10] 21 µM | [11] 49.4 µM | [12] 38.3 µM | [13] 32.9 µM | [14] 45.3 µM | [15] 66.1 µM | [16] 18.9 µM | [18] 31.8 µM

CC(C(=O)NCNC(=O)c1ccccc1)C(=O)Nc1ccccc1 (configuration not stated)
inactive: [19] > 100 µM | [1] > 100 µM | [2] > 100 µM | [20] > 100 µM | [3] > 100 µM | [4] > 100 µM | [5] > 100 µM | [6] > 100 µM | [7] > 100 µM | [8] > 100 µM | [9] > 100 µM | [11] > 100 µM | [12] > 100 µM | [13] > 100 µM | [15] > 100 µM | [17] > 100 µM | [18] > 100 µM

COc1ccc(CCN2COc3ccc4ccc(=O)oc4c3C2)cc1OC
inactive: [19] > 100 µM | [1] > 100 µM | [2] > 100 µM | [20] > 100 µM | [3] > 100 µM | [4] > 100 µM | [5] > 100 µM | [6] > 100 µM | [7] 89.5 µM | [8] > 100 µM | [9] > 100 µM | [10] > 100 µM | [11] > 100 µM | [12] > 100 µM | [13] > 100 µM | [14] 20.9 µM | [15] > 100 µM | [16] > 100 µM | [17] > 100 µM | [18] > 100 µM

N#C[BH2-][n+]1cn(C2CC(OP(=O)(O)OCC3OC(n4cnc5c(=O)[nH]c(N)nc54)CC3O)C(CO)O2)c2nc(N)[nH]c(=O)c21 (configuration not stated)
inactive: [19] > 100 µM | [1] 74.3 µM | [2] > 100 µM | [20] > 100 µM | [4] > 100 µM | [5] > 100 µM | [6] > 100 µM | [7] 62.8 µM | [8] > 100 µM | [9] > 100 µM | [10] > 100 µM | [11] > 100 µM | [12] > 100 µM | [13] > 100 µM | [14] 55.5 µM | [15] > 100 µM | [16] > 100 µM | [17] > 100 µM | [18] > 100 µM
